Test results from US20090093069A1, “Topiramate Immunoassays” (ARK Diagnostics, Inc., priority 2007, published 2009).
Read-outs that look alike come from different tables or passages of the source.

How the values were obtained:
[1] = tested on: rabbit polyclonal antibody #11341; assay: ARK homogeneous enzyme immunoassay, topiramate calibration curve on HITACHI 917; assay type: binding; details: conjugate 12-G6PDH
Experimental: Rabbit polyclonal antibody […] was used to generate a calibration curve, and evaluate assay precision, accuracy and specificity. The antibody was added into the antibody diluent to prepare the antibody reagent. The antibody reagent consists of antibody as prepared above, buffer, stabilizers, preservatives, and the substrates for the enzyme conjugate NAD and glucose 6 phosphate. Enzyme conjugate comprising compound (12-G6PDH) G6PDH was added into the conjugate reagent to prepare the enzyme conjugate reagent. The enzyme conjugate reagent consists of the conjugate, buffer, stabilizers and preservatives. Enzyme conjugate (12-G6PDH) was used with rabbit polyclonal antibody #11341 in examples below. This technique is generally applicable to produce polyclonal antibodies to diacetonefructose derivatives and assess their utility.
The diacetonefructose derivative antibodies and enzyme conjugates may be advantageously used in a homogeneous assay format to detect topiramate in samples. An enzyme immunoassay or ARK Assay, which is a homogeneous enzyme immunoassay experiment, is performed to test the polyclonal antibodies prepared as in Example 17. The ARK Assay for topiramate is conducted using a liquid, ready-to-use, two-reagent kit. A clinical chemistry analyzer useful to set up the assay is HITACHI 917. The HITACHI 917 is an automated biochemistry analyser used by medical laboratories to process biological fluid specimens, such as urine, cerebrospinal fluid, and most commonly, blood. Manufactured by Boehringer Mannheim, the HITACHI 917 is a commonly used routine chemical bichromatic analyzer. Topiramate containing sample is incubated with antibody reagent followed by the addition of the enzyme conjugate reagent. The enzyme conjugate activity decreases upon binding to the antibody. The enzyme conjugate, which is not bound to the antibody, catalyzes the oxidation of glucose 6-phosphate (G6P). The oxidation of G6P is coupled with the reduction of NAD^+ to NADH, which can be measured at 340 nm. The change in the absorbance at 340 nm can be measured spectrophotometrically. The topiramate concentration in a specimen can be measured in terms of G6PDH activity. The increase in the rate at 340 nm is due to the formation of NADH and is proportional to the enzyme conjugate activity. An assay calibration curve is generated using topiramate spiked into negative calibrator matrix (See Example 19 below). The assay rate increases with increasing the concentration of drug in the sample.
Topiramate was dissolved in methanol to give a stock solution of 1000 μg/mL. Pooled human serum was aliquoted in 10 mL portions. Topiramate stock solution was added to the aliquots of human serum in preparing a series of known concentrations of topiramate calibrators ranging from 0 to 60 μg/mL. Similarly, Quality Control samples were prepared (2.0, 10.0 and 40.0 μg/mL). Antibody Reagent was prepared by adding antibody […] to antibody/substrate diluent. The antibody/substrate reagent was assayed with Enzyme Conjugate Reagent (12-G6PDH). Calibration curves were generated on the HITACHI 917 automated clinical chemistry analyzer, as described in Example 18 by assaying each level in duplicate.

[2] = tested on: antibodies raised with immunogens (10-KLH, 12-KLH, 12-L-KLH, 19-KLH, 22-KLH and 25-KLH); assay: Enzyme-based assay format, reactivity of antibodies raised with the immunogens; assay type: binding
Text: All the prepared haptens have utility for KLH and G6PDH bio-conjugation. immunogens (10-KLH, 12-KLH, 12-L-KLH, 19-KLH, 22-KLH and 25-KLH) were used to raise antibodies.

[3] = cited from earlier work
[4] = tested on: serum proteins; details: cited from earlier work
[5] = cited from earlier work; for mean topiramate serum concentration: Lhatoo et al. (2000); for topiramate concentrations: May et al. (2002)
[6] = tested on: patients with drug refractory (mostly partial) epilepsy; details: Stephen et al. (2000), 170 patients, cited from earlier work
[7] = dose escalation add-on studies, morning serum concentrations

- Reaction Rate (mA/min) Average of Duplicates ([1]; topiramate calibrator 3.5 μg/mL in human serum): 406.0 mA/min
- Reaction Rate (mA/min) Average of Duplicates ([1]; topiramate calibrator 7.5 μg/mL in human serum): 442.4 mA/min
- Reaction Rate (mA/min) Average of Duplicates ([1]; topiramate calibrator 15.0 μg/mL in human serum): 478.3 mA/min
- Reaction Rate (mA/min) Average of Duplicates ([1]; topiramate calibrator 30.0 μg/mL in human serum): 511.6 mA/min
- Reaction Rate (mA/min) Average of Duplicates ([1]; topiramate calibrator 60.0 μg/mL in human serum): 542.4 mA/min
- reactivity of the antibodies [2]: good reactivity
Compound: CC1(C)O[C@@H]2[C@@H](CO[C@@]3(COS(N)(=O)=O)OC(C)(C)O[C@@H]23)O1 [Topiramate, 2,3:4,5-bis-O-(1-methylethylidene)-β-D-fructopyranose sulfamate]
- change of serum topiramate concentrations ([3]; clearance decreased by propranolol, amitriptyline, lithium, and sumatriptan): slightly increased
- Tmax ([3]; following oral ingestion): 2 to 4 h
- bioavailability ([3]; following oral ingestion): 81-95%
- Vd ([3]; human, in vivo): 0.6 to 1 L/kg
- fraction of the dose metabolized ([3]; human, in vivo): Approximately 50%
- serum half-life ([3]; human, in vivo): 20 to 30 h
- half-life ([3]; patients co-prescribed enzyme-inducing AEDs): about 12 h
- lowering of topiramate concentrations ([3]; with valproic acid): 10-15%
- bound to serum proteins [4]: 15%
- serum concentrations at which optimal response is most likely ([5]; Christensen et al. (2003), concentration-controlled trial): 2000 to 10000 ng/mL
- serum topiramate concentrations ([5]; Johannessen et al. (2003), patients treated with therapeutic doses, most studies): 5 to 20 mg/L
- mean topiramate serum concentration ([5]; patients in whom topiramate was stopped because of adverse effects): 6 mg/L
- mean topiramate serum concentration ([5]; responders): 7 mg/L
- mean topiramate serum concentration ([5]; seizure-free patients): 9 mg/L
- topiramate concentrations ([5]; considerably higher doses (up to 2000 mg/day)): ≤ 27 mg/L
- topiramate concentrations ([5]; doses of 125-400 mg in addition to other AEDs): 2.4 to 8 mg/L
- serum topiramate concentrations in patients with improvement (trend) ([5]; Penovich et al. (1997), compared with those without seizure reduction): > 10 mg/L
- systemic topiramate concentrations ([5]; considerably higher doses, up to 2000 mg): ≤ 80 µmol·L
- serum concentrations at which a reduction in seizure control was seen [5, 7]: greater than 75 μmol/L
- serum concentrations with significant increase in side effects [5, 7]: > 60 µM
- patients with favorable response ([6]; wide range of doses and serum concentrations): 70%
- patients becoming seizure-free [6]: 23%
